Laboratory results taken from ChEMBL document CHEMBL3301546, “MMV Malaria Box yeast growth screening”.

Legend:
Format in all cases: functional
Saccharomyces cerevisiae [1] = test: MMV: Growth assays were conducted using the prototrophic S. cerevisiae strain JHY222. Each MMV compound (0.1 mM) was tested in minimal media containing ethanol and glycerol as carbon sources (Yeast Nitrogen Base, Ethanol, Glycerol; YNBEG). The growth rate in the presence of each MMV compound was calculated as follows: (i) the first 10 OD readings were averaged and subtracted from all OD readings of the corresponding curve to set the baseline of the growth curve to zero, and (ii) the area under the curve (AUC) was then calculated as the sum of all OD readings. […] A relative growth value was calculated as follows: AUC(DRUG) - AUC(DMSO)/AUC(DMSO); where AUC(DMSO) represents growth measured in a DMSO control well that was on the same microtiter plate of the drug-treated culture.
Saccharomyces cerevisiae [2] = test: (§1) MMV: Growth assays were conducted using the prototrophic S. cerevisiae strain JHY222. Each MMV compound (0.1 mM) was tested in rich media containing dextrose as a carbon source (Yeast Extract, Peptone, Dextrose; YPD). The growth rate in the presence of each MMV compound was calculated as follows: (i) the first 10 OD readings were averaged and subtracted from all OD readings of the corresponding curve to set the baseline of the growth curve to zero, and (ii) the area under the curve (AUC) was then calculated as the sum of all OD readings. […] A relative growth value was calculated as follows: AUC(DRUG) - AUC(DMSO)/AUC(DMSO); where AUC(DMSO) represents growth measured in a DMSO control well that was on the same microtiter plate of the drug-treated culture.
Saccharomyces cerevisiae [3] = test: as §1, with “minimal” for “rich”, “Nitrogen Base,” for “Extract, Peptone,”, “YNBD).” for “YPD).”

SMILES	Relative Growth (Saccharomyces cerevisiae [1])	Relative Growth (Saccharomyces cerevisiae [2])	Relative Growth (Saccharomyces cerevisiae [3])
Cc1cccc(Nc2nc(N)c3ccccc3n2)c1.Cl	0.3952	-0.0941	0.1313
CCOc1ccc(-n2cc(-c3ccccc3)c3c(SCc4cc(C)ccc4C)ncnc32)cc1	-0.2113	-0.0534	-0.0883
COc1ccc(-c2cc3c(SCC(=O)Nc4cc(C(F)(F)F)ccc4Cl)nccn3n2)cc1	-0.1809	-0.0822	0.0829
Cl.N=c1n(CCN2CCCCC2)c2ccccc2n1CC(O)c1cccc(Br)c1 (configuration not stated)	-0.5142	-0.0788	-0.2329
O=C(Nc1ccc(N2CCCCC2)c(Cl)c1)c1ccc(Br)o1	-0.1511	-0.0318	-0.1788
Cc1cc(Nc2ccc(Cl)cc2)n2nc(C(F)(F)F)nc2n1	-0.0099	0.0103	0.0221
COc1ccccc1C(=O)ON=C(N)Cc1cccc2ccccc12	0.0174	0.0139	0.0083
CCCCc1ccc(NS(=O)(=O)c2cc3c4c(c2)CCN4C(=O)CC3)cc1	0.0701	-0.0323	-0.0346
COc1cc(-c2nc(-c3ccccc3)c(-c3ccccc3)[nH]2)cc(OC)c1O	-0.1558	-0.0158	0.0542
CCCc1cc(O)c2c3c(c(=O)oc2c1)CN(C)CC3	-0.0215	-0.0062	-0.0292
CCOC(=O)c1cnc2ccc(OC)cc2c1NCc1ccccc1	-0.1303	-0.0244	-0.0203
CCCN(CCC)CC(O)COc1ccccc1C(=O)Nc1ccccc1 (configuration not stated)	0.0655	-0.0395	0.0118
O=C(CCl)NCCOc1ccc(Cl)cc1Cl	-0.0052	-0.0085	0.0391
O=C(Nc1cccc(-c2nc3ccccc3[nH]2)c1)c1cccc(NC(=O)c2ccco2)c1	-0.4658	-0.1741	-0.0641
Cc1ccc(-c2cc3nc4c(c(O)n3n2)CCCC4)cc1	-1.0646	-0.3245	-1.0172
O=C(Nc1ccc(CN2CCOCC2)cc1)c1ccc(-c2ccc(Br)cc2)o1	-0.1653	-0.0599	-0.3783
COc1cc2cc(C(=O)Nc3ccccc3)c(N)nc2cc1OC	0.0392	-1.0109	-0.0986
CCCCNCC(O)(c1ccc(Cl)cc1)c1ccc(Cl)cc1	-0.1782	0.0298	-0.2198
COc1cccc(NC(=O)Cn2c(C)c(C#N)c3ccccc32)c1	-1.0064	-0.9399	-1.0078
CCC1(C)CC(CCNCc2ccccc2O)(c2ccc(C)cc2)CCO1 (configuration not stated)	0.156	0.0044	0.0584
CC(=O)Nc1nnc(SCc2c(C)cc(C(C)(C)C)cc2C)s1	0.0163	0.0168	0.0621
CCOc1ccccc1CN1CCc2nc3cc(C(C)(C)C)nn3c(O)c2C1	-0.4424	-0.6117	-0.2912

SMILES	Relative Growth (Saccharomyces cerevisiae [1])	Relative Growth (Saccharomyces cerevisiae [2])	Relative Growth (Saccharomyces cerevisiae [3])
COc1ccccc1N1C(=N)SC(=Cc2ccc(OCc3ccccc3F)cc2)C1=O	-0.0753	0.0323	0.0037
O=C(c1ccccc1F)N(Cc1ccc(Cl)cc1)c1ccccn1	-0.0049	-0.0537	0.0025
O=C(NCc1ccco1)C1CCN(S(=O)(=O)c2ccc(Br)cc2)CC1	-0.2359	-0.1145	-0.0814
CCOc1ccc(Nc2ccnc3cc(Cl)ccc23)cc1	0.0427	0.0185	0.0274
COc1ccc(C(=O)Nc2ccc3nc(N4CCCCC4)cc(C)c3c2)cc1OC	-0.4538	-0.0828	-0.1419
CCOc1ccccc1NC(=O)CN1CCN(C(=O)c2ccco2)CC1	-0.0386	-0.0315	0.1567
COc1ccc(C2c3ccc4ccccc4c3Oc3ncn(CCCN(C)C)c(=N)c32)cc1 (configuration not stated)	-0.0587	-0.012	-0.0503
CCOc1cc2c(cc1OCC)C(c1cc(Cl)ccc1O)NCC2 (configuration not stated)	-0.522	-0.0098	0.0319
Cc1ccc(Nc2nc(NCCO)c3ccccc3n2)cc1C	0.0228	-0.1142	0.0139
COc1ccc(C=C2SC(Nc3ccc(F)cc3)=NC2=O)c(OC)c1	-0.8081	-0.0657	-0.7691
CCOc1cccc2sc(N(Cc3cccnc3)C(=O)C3CCCCC3)nc12	-0.3394	-0.0327	-0.0544
Brc1ccc(Nc2nc3ccccc3nc2Nc2ccc(Br)cc2)cc1	-0.5592	-0.9981	-0.0577
CCCc1c(C)nc2ccc(Br)cc2c1O	-0.1859	0.0054	-0.0231
COc1ccc(C(=O)Nc2nonc2-c2ccc(OC)c(OC)c2)cc1Cl	0.0586	-0.0037	0.1144
Clc1ccc2[nH]c3c(NCCCN4CCOCC4)ncnc3c2c1	-0.0516	0.0234	-0.0328
CCCCCCn1c(=N)n(CC(O)COc2cccc(C)c2)c2ccccc21.Cl (configuration not stated)	-0.0105	-0.051	-0.1558
COc1ccc(/C=C2/SC(=Nc3ccccc3)NC2=O)cc1	-0.9641	-0.1491	-0.223
CCCCCCOC(=O)C1=C(C)NC(=O)NC1c1ccccc1F (configuration not stated)	-0.2346	-0.0098	0.2134
Oc1ccc(-c2nc(-c3ccc4oc5ccc(-c6[nH]c(-c7ccc(O)cc7)nc6-c6ccccc6)cc5c4c3)c(-c3ccccc3)[nH]2)cc1	-0.1734	-0.979	0.0106
CCOc1ccc(CCNC(=O)c2cccs2)cc1OCC	-0.3956	-1.0059	-0.7048
COc1ccc(C(=O)C(CCC(CNC(C)(C)C)C(=O)c2ccc(OC)cc2)CNC(C)(C)C)cc1 (configuration not stated)	-0.4347	-0.0341	-0.0754
Cc1cc(N(C)C)nc(Nc2ccc(NC(=O)Nc3ccccc3)cc2)n1	-0.3445	-0.0299	-0.0678
